# Results published in EP1509285B1, “SYNERGISTIC COMPOSITION OF TRANS-TETRACOS-15-ENOIC ACID AND APOCYNIN AND USE THEREOF” (COUNCIL OF SCIENTIFIC AND INDUSTRIAL RESEARCH, priority 2002, dated 2003).
# Test system: bile flow and bile solids
# Test: Choleretic activity: bile flow and bile solids after bile duct cannulation in normal anaesthetised rats
# Format: in vivo
# Conditions: 50 mg kg-1 i.d., bile collected 0-5 hours, mean ±SE
# Text: The liver, by producing bile, plays an important role in digestion. The presence of bile in the intestine is necessary to accomplish the digestion and absorption of fats as well as absorption of the fat-soluble vitamins- A, D, E & K. Bile is also an important vehicle of excretion. It removes many drugs, toxins, bile pigments and various inorganic substances either derived from the diet or synthesized by the body as cholesterol or as cholic acid.
# Effect on the liver bile flow of test drug and that of vehicle is carried out after cannulating the bile duct in normal anaesthesied rats. Bile collected is from each animal from 0-5 hours (Klaassen, 1969, Donal et al.1953). (Table 5)
smiles,measurement,value
"C[C@H](CCC(=O)O)[C@H]1CC[C@H]2[C@@H]3C(=O)C[C@@H]4CC(=O)CC[C@]4(C)[C@H]3CC(=O)[C@]12C [DHC, Dehydrocholic acid, reference compound]",Bile parameters % Increase (as compared to normal) Bile flow,38.40±2.76 ml%
same,Bile parameters % Increase (as compared to normal) Bile solids,28.13±3.89 mg%
